Structures can show the parent of a compound that is named as a salt. Where two headings read alike, the source gives them in different places.
How the values were obtained:
Format in all cases: biochemical
E. coli DNA gyrase = target: T1, E. coli DNA gyrase (Escherichia coli, UniProt P0AES4+P0AES6); test: DNA gyrase supercoiling assay (E. coli); conditions: for inhibition at 50 µM: E. coli, conc. 50 μM, n/a = not active
T1 construct: purchased Inspiralis, UK
Outline: (§1)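 Relaxed pBR322 (0.5 μg) supercoiled by E. coli (2 U) or S. aureus (1 U) gyrase, 30 min at 37° C; compounds at single 200, 100 or 50 μM, duplicate. Supercoiled band quantified on ethidium-stained agarose gel, expressed as % inhibition vs DMSO control; IC50 by two-parameter exponential decay fit.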

E. coli Topoisomerase IV = target: T2, E. coli Topoisomerase IV (Escherichia coli, UniProt P0AFI2+P20083); test: Topoisomerase IV decatenation assay (E. coli); conditions: for inhibition at 50 µM: E. coli, conc. 50 μM, n/a = not active, read-out: % inhibition Topo IV
T2 construct: purchased Inspiralis, UK
Outline: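 Topo IV decatenation of kDNA (200 ng) with 0.5 U enzyme in HEPES-KOH pH 7.6 buffer containing 1 mM ATP and Mg acetate, 30 min at 37 °C. Single-concentration screen (200, 100 or 50 μM) in duplicate. Decatenated minicircles resolved on agarose, ethidium-stained band intensity expressed as % inhibition versus vehicle; IC50 from exponential-decay curve fit.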

S. aureus DNA gyrase = target: T3, S. aureus DNA gyrase (Staphylococcus aureus, UniProt P0A0K8+P20831); test: DNA gyrase supercoiling assay (S. aureus); conditions: for inhibition at 50 µM: S. aureus, conc. 50 μM, n/a = not active
T3 construct: purchased Inspiralis, UK
Outline: as §1

[1] = target: T4, S. aureus Topoisomerase IV (Staphylococcus aureus, UniProt P0C1S7+P0C1U9); test: Topoisomerase IV decatenation assay (S. aureus); conditions: for inhibition at 50 µM: read-out: % inhibition Topo IV
T4 construct: purchased Inspiralis, UK
Method: The above compounds were tested for the inhibition of the enzyme DNA gyrase in a gyrase supercoiling assay and for the inhibition of the enzyme topoisomerase IV in a decatenation assay, in both Gram positive and Gram negative bacteria, according to the following methods.
Both the assays were carried out according to a set-up method modified from the article to Blanche F, et al. “Differential Behaviors of Staphylococcus aureus and Escherichia coli Type II DNA Topoisomerases”, Antimicrob. Agents Chemother., 1996, Vol. 40, No. 12 p. 2714-2720.
The compounds were screened at single concentration (200, 100 or 50 μM), in duplicate.
S. aureus and E. coli Topoisomerase IV decatenation kits (Inspiralis, UK) were used. A master mix with a total volume sufficient for the number of reactions to perform was prepared with the following reagents: 5× assay buffer (50 mM HEPES-KOH (pH 7.6), 100 mM potassium glutamate, 10 mM magnesium acetate, 10 mM DTT, 1 mM ATP, 50 μg/ml albumin), kDNA substrate (200 ng/reaction), RNase-DNase free water. Aliquots of this mix were dispensed in each tube, then 10× compound stock solutions or vehicle control (DMSO), were added in each reaction tube.
Reaction was started with Topoisomerase IV enzyme (0.5 U/reaction) addition.
A sample added with an equal volume of dilution buffer was used as negative control (without enzyme).
The reaction tubes were gentle vortexed and incubated 30 minutes at 37° C. Each reaction was stopped by adding 30 μl of Stop Buffer and 30 μl of chloroform/isoamyl alcohol (24/1), briefly vortexed for 5-10 seconds and centrifuged at 20000×g for 2 minutes. Samples taken from the upper phase were loaded into 1% agarose gel and subjected to electrophoresis for 1 hour at 80V constant voltage in TAE (40 mM Tris-acetate, 2 mM EDTA).
Data acquisition and analysis. Due to the high molecular mass, kDNA could not enter an agarose gel under normal electrophoresis conditions, but remained in the wells. In the presence of Topo IV topoisomerase mini-circles (2.5 Kb) were released from kDNA by decatenation and were quickly and easily resolved in the gel at relatively high voltages.
Bands were visualized by ethidium bromide staining (dil 1:20000) for 30 minutes followed by destaining in distilled water for 10 minutes.
For single concentration screening assay, in order to evaluate the compounds activity on the enzymes, the bands of decatenated DNAs in the gel were photographed by a digital imaging system ImageQuant LAS 4000 (GE Healthcare) according to manufacturer's instructions.
The fluorescent intensity of each band was analyzed by ImageQuant TL software and it was expressed as volume (volume of the uncalibrated quantity of material in the image feature after subtraction of the background intensity by using rolling ball method).
Each band intensity was compared, as percentage, to vehicle sample band intensity, which served as positive control, on the same gel.
Inhibitory activity was expressed as percent of inhibition versus the positive control.
The supercoiled or decatenated DNA bands obtained as described in Example 1 were analysed as follows.
Bands were analyzed by gel documentation equipment (Syngene, Cambridge, UK) and quantitated using Syngene Gene Tools software. Raw gel data (fluorescent band volumes) collected from Syngene, GeneTools gel analysis software were converted to a percentage of the 100% control (the fully supercoiled or decatenated DNA band). […] The IC50 data were calculated by using the global curve fit non-linear regression tool by selecting the Single, 2 Parameter fit function from the Exponential Decay equation category.

[2] = S. aureus, concentration-response curve, eight half-log concentrations 0.1 to 300 μM, read-out: IC50 Topo IV
[3] = S. aureus, conc. 50 μM, n/a = not active

T4 sequence (P0C1S7 whole entry): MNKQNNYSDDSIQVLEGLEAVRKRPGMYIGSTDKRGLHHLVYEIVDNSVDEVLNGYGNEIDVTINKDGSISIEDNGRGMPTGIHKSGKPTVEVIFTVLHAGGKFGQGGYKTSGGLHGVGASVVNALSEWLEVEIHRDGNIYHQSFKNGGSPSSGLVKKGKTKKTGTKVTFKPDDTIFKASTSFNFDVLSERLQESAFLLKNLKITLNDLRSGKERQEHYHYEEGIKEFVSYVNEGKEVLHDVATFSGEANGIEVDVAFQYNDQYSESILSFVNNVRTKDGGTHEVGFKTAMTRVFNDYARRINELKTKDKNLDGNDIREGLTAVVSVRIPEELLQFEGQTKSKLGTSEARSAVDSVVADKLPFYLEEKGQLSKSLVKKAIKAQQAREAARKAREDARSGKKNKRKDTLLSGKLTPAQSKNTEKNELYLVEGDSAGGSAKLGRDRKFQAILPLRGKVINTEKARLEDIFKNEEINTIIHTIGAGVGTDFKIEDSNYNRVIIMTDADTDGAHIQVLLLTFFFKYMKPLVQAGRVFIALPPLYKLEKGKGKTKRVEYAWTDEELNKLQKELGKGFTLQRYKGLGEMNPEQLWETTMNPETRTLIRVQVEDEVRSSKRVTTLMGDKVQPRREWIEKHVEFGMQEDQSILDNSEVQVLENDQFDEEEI
T4 sequence (P0C1U9 whole entry): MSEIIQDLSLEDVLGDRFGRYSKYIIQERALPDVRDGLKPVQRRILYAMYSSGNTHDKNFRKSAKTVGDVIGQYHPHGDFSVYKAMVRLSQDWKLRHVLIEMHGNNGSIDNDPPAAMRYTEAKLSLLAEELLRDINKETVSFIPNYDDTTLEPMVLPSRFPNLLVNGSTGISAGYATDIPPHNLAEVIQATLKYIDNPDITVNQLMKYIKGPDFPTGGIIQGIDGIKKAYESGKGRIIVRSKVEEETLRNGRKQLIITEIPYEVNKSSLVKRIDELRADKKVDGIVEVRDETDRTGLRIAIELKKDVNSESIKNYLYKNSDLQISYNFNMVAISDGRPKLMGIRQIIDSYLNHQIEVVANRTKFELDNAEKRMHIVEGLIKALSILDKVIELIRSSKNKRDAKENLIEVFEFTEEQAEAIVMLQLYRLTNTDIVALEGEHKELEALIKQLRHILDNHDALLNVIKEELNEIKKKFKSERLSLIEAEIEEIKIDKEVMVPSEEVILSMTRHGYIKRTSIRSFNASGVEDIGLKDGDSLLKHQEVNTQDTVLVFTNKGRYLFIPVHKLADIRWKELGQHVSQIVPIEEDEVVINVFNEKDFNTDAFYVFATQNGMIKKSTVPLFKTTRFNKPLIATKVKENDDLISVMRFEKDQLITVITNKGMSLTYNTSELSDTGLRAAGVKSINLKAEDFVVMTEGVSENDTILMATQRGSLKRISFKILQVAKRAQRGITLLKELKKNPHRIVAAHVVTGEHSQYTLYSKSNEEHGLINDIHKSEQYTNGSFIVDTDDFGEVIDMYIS
T1 sequence (P0AES4 whole entry, one chain of several): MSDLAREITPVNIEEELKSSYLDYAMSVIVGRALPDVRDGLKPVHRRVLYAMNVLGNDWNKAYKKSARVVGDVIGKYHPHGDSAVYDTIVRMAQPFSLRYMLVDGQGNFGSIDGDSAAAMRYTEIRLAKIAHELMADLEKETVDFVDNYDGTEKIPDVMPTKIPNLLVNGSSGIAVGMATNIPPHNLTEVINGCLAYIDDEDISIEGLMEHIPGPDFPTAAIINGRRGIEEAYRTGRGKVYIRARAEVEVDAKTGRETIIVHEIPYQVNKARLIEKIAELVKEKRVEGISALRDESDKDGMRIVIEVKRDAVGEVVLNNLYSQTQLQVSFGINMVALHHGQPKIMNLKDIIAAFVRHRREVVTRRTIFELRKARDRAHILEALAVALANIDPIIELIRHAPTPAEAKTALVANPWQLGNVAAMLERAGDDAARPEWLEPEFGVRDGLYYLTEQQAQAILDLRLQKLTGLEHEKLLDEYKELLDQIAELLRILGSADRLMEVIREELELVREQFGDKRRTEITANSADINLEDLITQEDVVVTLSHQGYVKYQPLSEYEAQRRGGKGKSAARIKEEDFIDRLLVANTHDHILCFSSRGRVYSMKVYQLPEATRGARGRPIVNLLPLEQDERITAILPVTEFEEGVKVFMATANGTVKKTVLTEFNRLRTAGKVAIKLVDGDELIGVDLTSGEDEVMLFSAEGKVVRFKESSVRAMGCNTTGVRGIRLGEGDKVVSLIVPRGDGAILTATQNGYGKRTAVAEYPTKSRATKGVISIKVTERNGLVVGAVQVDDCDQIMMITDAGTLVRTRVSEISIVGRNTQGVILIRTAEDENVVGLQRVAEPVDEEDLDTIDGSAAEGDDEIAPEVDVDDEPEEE
T2 sequence (P20083 whole entry): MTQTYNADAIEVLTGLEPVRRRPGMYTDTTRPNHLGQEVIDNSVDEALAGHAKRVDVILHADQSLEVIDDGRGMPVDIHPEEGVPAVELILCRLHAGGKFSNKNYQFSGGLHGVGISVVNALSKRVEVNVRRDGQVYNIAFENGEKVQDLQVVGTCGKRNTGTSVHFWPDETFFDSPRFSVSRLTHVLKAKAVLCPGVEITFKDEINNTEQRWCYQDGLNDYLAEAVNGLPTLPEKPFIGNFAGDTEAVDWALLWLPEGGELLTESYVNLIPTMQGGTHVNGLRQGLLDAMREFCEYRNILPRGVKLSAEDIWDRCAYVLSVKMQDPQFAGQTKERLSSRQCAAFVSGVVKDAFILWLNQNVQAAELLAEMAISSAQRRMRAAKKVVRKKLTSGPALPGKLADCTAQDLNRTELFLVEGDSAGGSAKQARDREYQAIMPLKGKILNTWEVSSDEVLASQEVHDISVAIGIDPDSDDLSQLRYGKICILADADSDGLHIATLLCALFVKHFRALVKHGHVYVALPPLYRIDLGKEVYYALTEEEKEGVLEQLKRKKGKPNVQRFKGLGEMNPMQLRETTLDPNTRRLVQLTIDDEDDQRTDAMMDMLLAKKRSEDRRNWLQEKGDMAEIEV
T2 sequence (P0AFI2 whole entry): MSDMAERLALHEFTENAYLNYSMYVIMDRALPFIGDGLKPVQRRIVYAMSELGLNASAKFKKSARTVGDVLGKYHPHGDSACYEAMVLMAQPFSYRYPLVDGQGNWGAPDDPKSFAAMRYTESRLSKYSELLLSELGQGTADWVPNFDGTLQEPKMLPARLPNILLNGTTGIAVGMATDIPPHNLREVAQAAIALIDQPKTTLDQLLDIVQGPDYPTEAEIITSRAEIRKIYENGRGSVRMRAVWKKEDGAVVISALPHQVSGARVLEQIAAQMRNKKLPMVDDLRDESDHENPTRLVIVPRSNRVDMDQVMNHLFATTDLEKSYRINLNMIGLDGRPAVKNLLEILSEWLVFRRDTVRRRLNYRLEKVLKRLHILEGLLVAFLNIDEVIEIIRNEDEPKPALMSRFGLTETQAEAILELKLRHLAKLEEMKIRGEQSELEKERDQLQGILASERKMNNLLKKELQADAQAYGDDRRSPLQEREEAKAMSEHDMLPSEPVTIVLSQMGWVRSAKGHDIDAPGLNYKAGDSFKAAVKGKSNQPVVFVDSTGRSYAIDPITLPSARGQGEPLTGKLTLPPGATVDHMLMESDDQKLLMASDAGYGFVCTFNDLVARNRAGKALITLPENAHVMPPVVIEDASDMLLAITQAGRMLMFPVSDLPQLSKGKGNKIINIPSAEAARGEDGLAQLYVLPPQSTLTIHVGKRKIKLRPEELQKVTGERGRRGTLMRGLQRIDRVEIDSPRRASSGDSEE

Structure (SMILES): NC(CN1CCN(c2nccc3ccc(F)cc23)CC1)c1nc2c(=O)oc3ccccc3c2[nH]1 (stereo not drawn) [Compound 158, 2-{1-amino-2-[4-(7-fluoroisoquinolin-1-yl)piperazin-1-yl]ethyl}[1]benzopyrano[3,4-d]imidazol-4(1H)-one hydrochloride]
- IC50 (E. coli DNA gyrase): 1860 nM
- inhibition at 50 µM (E. coli DNA gyrase): 95%
- IC50 (E. coli Topoisomerase IV): 920 nM
- inhibition at 50 µM (E. coli Topoisomerase IV): 97%
- IC50 (S. aureus DNA gyrase): 860 nM
- inhibition at 50 µM (S. aureus DNA gyrase): 100%
- IC50 [1, 2]: 2130 nM
- inhibition at 50 µM [1]: 100%

Structure (SMILES): O=CNC(CN1CCN(c2nccc3ccc(F)cc23)CC1)c1nc2c(=O)oc3ccccc3c2[nH]1 (stereo not drawn) [Compound 159, N-{2-[4-(7-fluoroisoquinolin-1-yl)piperazin-1-yl]-1-(4-oxo-1,4-dihydro[1]benzopyrano[3,4-d]imidazol-2-yl)ethyl}formamide hydrochloride]
- IC50 (E. coli DNA gyrase): 1650 nM
- inhibition at 50 µM (E. coli DNA gyrase): 94%
- IC50 (E. coli Topoisomerase IV): 1040 nM
- inhibition at 50 µM (E. coli Topoisomerase IV): 98%
- IC50 (S. aureus DNA gyrase): 510 nM
- inhibition at 50 µM (S. aureus DNA gyrase): 100%
- IC50 [1, 2]: 1090 nM
- inhibition at 50 µM [1]: 100%

Structure (SMILES): O=c1nc(NCC(O)CN2CCN(c3nccc4ncc(F)cc34)CC2)c2cc(F)ccc2o1 (stereo not drawn) [Compound 162, 6-fluoro-4-({3-[4-(3-fluoro-1,6-naphthyridin-5-yl)piperazin-1-yl]-2-hydroxypropyl}amino)-2H-1,3-benzoxazin-2-one]
- IC50 (E. coli DNA gyrase): 4850 nM
- inhibition at 50 µM (E. coli DNA gyrase): 95%
- IC50 (E. coli Topoisomerase IV): 950 nM
- inhibition at 50 µM (E. coli Topoisomerase IV): 100%
- IC50 (S. aureus DNA gyrase): 880 nM
- inhibition at 50 µM (S. aureus DNA gyrase): 100%
- inhibition at 50 µM [1, 3]: 100%
- IC50 [1, 2]: 310 nM

Structure (SMILES): O=c1nc(NCC(O)CN2CCN(c3nccc4ncc(C(F)(F)F)cc34)CC2)c2cc(F)ccc2o1 (stereo not drawn) [Compound 163, 6-fluoro-4-[(2-hydroxy-3-{4-[3-(trifluoromethyl)-1,6-naphthyridin-5-yl]piperazin-1-yl}propyl)amino]-2H-1,3-benzoxazin-2-one]
- IC50 (E. coli DNA gyrase): 4400 nM
- inhibition at 50 µM (E. coli DNA gyrase): 80%
- IC50 (E. coli Topoisomerase IV): 9890 nM
- inhibition at 50 µM (E. coli Topoisomerase IV): 90%
- IC50 (S. aureus DNA gyrase): 82700 nM
- inhibition at 50 µM (S. aureus DNA gyrase): 30%
- inhibition at 50 µM [1, 3]: 100%
- IC50 [1, 2]: 1220 nM

Structure (SMILES): O=c1cc(NCC(O)CN2CCN(c3nccc4ncccc34)CC2)c2cc(F)ccc2o1 (stereo not drawn) [Compound 166, 6-fluoro-4-({2-hydroxy-3-[4-(1,6-naphthyridin-5-yl)piperazin-1-yl]propyl}amino)-2H-1-benzopyran-2-one]
- IC50 (E. coli DNA gyrase): 150 nM
- inhibition at 50 µM (E. coli DNA gyrase): 80%
- IC50 (E. coli Topoisomerase IV): 200 nM
- inhibition at 50 µM (E. coli Topoisomerase IV): 90%
- IC50 (S. aureus DNA gyrase): 1130 nM
- inhibition at 50 µM (S. aureus DNA gyrase): 70%
- IC50 [1, 2]: 300 nM
- inhibition at 50 µM [1]: 97%

Structure (SMILES): COC1CN(c2nccc3ccc(F)cc23)CCC1NCc1cc2c(=O)oc3ccccc3c2[nH]1 (stereo not drawn) [Compound 171, 2-({[1-(7-fluoroisoquinolin-1-yl)-3-methoxypiperidin-4-yl]amino}methyl)[1]benzopyrano[4,3-b]pyrrol-4(1H)-one]
- inhibition at 50 µM (E. coli DNA gyrase): 93%
- inhibition at 50 µM (E. coli Topoisomerase IV): 97%
- inhibition at 50 µM (S. aureus DNA gyrase): 100%
- inhibition at 50 µM [1, 3]: 72%

Structure (SMILES): O=c1oc2ccccc2c2[nH]c(CNC3CCN(c4nccc5ccc(F)cc45)CC3F)cc12 (stereo not drawn) [Compound 172, 2-({[3-fluoro-1-(7-fluoroisoquinolin-1-yl)piperidin-4-yl]amino}methyl)[1]benzopyrano[4,3-b]pyrrol-4(1H)-one]
- inhibition at 50 µM (E. coli DNA gyrase): 94%
- inhibition at 50 µM (E. coli Topoisomerase IV): 89%
- inhibition at 50 µM (S. aureus DNA gyrase): 64%
- inhibition at 50 µM [1, 3]: 39%

Structure (SMILES): CC1CN(c2nccc3ccc(F)cc23)CCC1NCc1cc2c(=O)oc3ccccc3c2[nH]1 (stereo not drawn) [Compound 177, 2-({[1-(7-fluoroisoquinolin-1-yl)-3-methylpiperidin-4-yl]amino}methyl) [1]benzopyrano[4,3-b]pyrrol-4(1H)-one]
- inhibition at 50 µM (E. coli DNA gyrase): 77%
- inhibition at 50 µM (E. coli Topoisomerase IV): 74%
- inhibition at 50 µM (S. aureus DNA gyrase): 98%
- inhibition at 50 µM [1, 3]: 14%

Structure (SMILES): O=c1oc2ccccc2c2[nH]c(CNC3CCN(c4nccc5ccc(F)cc45)CC3O)cc12 (stereo not drawn) [Compound 186, 2-({[1-(7-fluoroisoquinolin-1-yl)-3-hydroxypiperidin-4-yl]amino}methyl)[1]benzopyrano[4,3-b]pyrrol-4(1H)-one]
- inhibition at 50 µM (E. coli DNA gyrase): 70%
- inhibition at 50 µM (E. coli Topoisomerase IV): 54%
- inhibition at 50 µM (S. aureus DNA gyrase): 100%
- inhibition at 50 µM [1, 3]: 87%

Structure (SMILES): O=c1oc2ccc(F)cc2c2cc(CNC3CCN(c4nccc5ncccc45)CC3)[nH]c12 [Compound 187, 8-fluoro-2-({[1-(1,6-naphthyridin-5-yl)piperidin-4-yl]amino}methyl)[1]benzopyrano[3,4-b]pyrrol-4(3H)-one]
- IC50 (E. coli DNA gyrase): 190 nM
- inhibition at 50 µM (E. coli DNA gyrase): 79%
- IC50 (E. coli Topoisomerase IV): 1570 nM
- inhibition at 50 µM (E. coli Topoisomerase IV): 82%
- IC50 (S. aureus DNA gyrase): 160 nM
- inhibition at 50 µM (S. aureus DNA gyrase): 95%
- IC50 [1]: 1370 nM
- inhibition at 50 µM [1, 3]: 95%

Structure (SMILES): COc1ccc2nccc(N3CCC(NCc4cc5c([nH]4)c(=O)oc4ccc(F)cc45)CC3)c2n1 [Compound 188, 8-fluoro-2-({[1-(6-methoxy-1,5-naphthyridin-4-yl)piperidin-4-yl]amino}methyl)[1]benzopyrano[3,4-b]pyrrol-4(3H)-one]
- IC50 (E. coli DNA gyrase): 90 nM
- inhibition at 50 µM (E. coli DNA gyrase): 100%
- IC50 (E. coli Topoisomerase IV): 300 nM
- inhibition at 50 µM (E. coli Topoisomerase IV): 92%
- IC50 (S. aureus DNA gyrase): 15 nM
- inhibition at 50 µM (S. aureus DNA gyrase): 97%
- IC50 [1]: 200 nM
- inhibition at 50 µM [1, 3]: 98%

Structure (SMILES): COc1ccc2ncc(F)c(N3CCC(NCc4cc5c([nH]4)c(=O)oc4ccc(F)cc45)CC3)c2n1 [Compound 192, 8-fluoro-2-({[1-(3-fluoro-6-methoxy-1,5-naphthyridin-4-yl)piperidin-4-yl]amino}methyl)[1]benzopyrano[3,4-b]pyrrol-4(3H)-one]
- IC50 (E. coli DNA gyrase): 80 nM
- inhibition at 50 µM (E. coli DNA gyrase): 70%
- IC50 (E. coli Topoisomerase IV): 130 nM
- inhibition at 50 µM (E. coli Topoisomerase IV): 37%
- IC50 (S. aureus DNA gyrase): 17 nM
- inhibition at 50 µM (S. aureus DNA gyrase): 88%
- IC50 [1]: 100 nM
- inhibition at 50 µM [1, 3]: 76%

Structure (SMILES): COc1ccc2ncc(C#N)c(N3CCC(NCc4cc5c([nH]4)c(=O)oc4ccc(F)cc45)CC3)c2n1 [Compound 195, 4-(4-{[(8-fluoro-4-oxo-3,4-dihydro[1]benzopyrano[3,4-b]pyrrol-2-yl)methyl]amino}piperidin-1-yl)-6-methoxy-1,5-naphthyridine-3-carbonitrile]
- IC50 (E. coli DNA gyrase): 140 nM
- inhibition at 50 µM (E. coli DNA gyrase): 99%
- IC50 (E. coli Topoisomerase IV): 300 nM
- inhibition at 50 µM (E. coli Topoisomerase IV): 100%
- IC50 (S. aureus DNA gyrase): 100 nM
- inhibition at 50 µM (S. aureus DNA gyrase): 100%
- IC50 [1]: 100 nM
- inhibition at 50 µM [1, 3]: 100%

Structure (SMILES): O=c1oc2ccc(F)cc2c2cc(CNC3CCN(c4nccc5nccnc45)CC3)[nH]c12 [Compound 196, 8-fluoro-2-({[1-(pyrido[3,4-b]pyrazin-5-yl)piperidin-4-yl]amino}methyl)[1]benzopyrano[3,4-b]pyrrol-4(3H)-one]
- IC50 (E. coli DNA gyrase): 790 nM
- inhibition at 50 µM (E. coli DNA gyrase): 85%
- IC50 (E. coli Topoisomerase IV): 2540 nM
- inhibition at 50 µM (E. coli Topoisomerase IV): 100%
- IC50 (S. aureus DNA gyrase): 160 nM
- inhibition at 50 µM (S. aureus DNA gyrase): 83%
- IC50 [1]: 390 nM
- inhibition at 50 µM [1]: 89%

From patent publication US10221144B2, “Antibacterial compounds having broad spectrum of activity” (priority 2014, dated 2019)
